Among the data in US8278282B2, “Nucleoside analogs for treatment of viral infections” (Novartis AG, priority 2007, dated 2012) are EC50 and reduction in viremia values, retold here.

pEC50: −log10 of the molar value.

One experiment concerns yellow fever virus. In words: microbe, parasite or virus in culture. The experiment is classed as cell-based.
Experiment [1] relates to Japanese encephalitis virus. In words: microbe, parasite or virus in culture. The experiment is classed as cell-based.
For a further experiment, the system named is TSV01 dengue virus 2. In words: Mouse model of dengue infection (viremia by plaque assay). The conditions noted are these: 25 mg/kg bid, compared to the control group.
Another experiment deals with dengue virus serotype 1. Kind of experiment: microbe, parasite or virus in culture. The format is cell-based.
For the next experiment, the system named is West Nile virus. Kind of experiment: microbe, parasite or virus in culture. The experiment is classed as cell-based.
Another experiment relates to HCV replicon. Kind of experiment: Cell-based HCV replicon assay. The conditions noted are these: Hepatitis C virus. A general note: Replicon systems follow genome replication, usually without infectious particles.
The subject of a further experiment is dengue virus serotype 4. In words: microbe, parasite or virus in culture. The format is cell-based.
A further experiment deals with dengue virus serotype 2. In words: microbe, parasite or virus in culture. The experiment is classed as cell-based.

As usually defined, the pEC50 is −log10 of the EC50, conventionally taken in molar units. Low readings indicate a high EC50, high ones a low EC50.

Consider `C#C[C@@]1(O)[C@H](O)[C@@H](CO)O[C@H]1n1ccc2c(N)ncnc21` [Example 1, (2R,3R,4R,5R)-2-(4-Amino-pyrrolo[2,3-d]pyrimidin-7-yl)-3-ethynyl-5-hydroxymethyl-tetrahydrofuran-3,4-diol], for which the negative-log EC50 (pEC50) in the experiment on yellow fever virus is roughly 6.05; in experiment [1], roughly 5.89; in the experiment with dengue virus serotype 1, roughly 6.70; with West Nile virus, roughly 5.43; with HCV replicon it was roughly 7.00; in the experiment with dengue virus serotype 4 it was roughly 6.70. Also, in the experiment on TSV01 dengue virus 2, the reduction in viremia entry was “about 20 fold”.
`C#C[C@@]1(O)[C@H](O)[C@@H](CO)O[C@H]1n1cc(F)c2c(N)ncnc21` [Example 4, (2R,3R,4R,5R)-2-(4-Amino-5-fluoro-pyrrolo[2,3-d]pyrimidin-7-yl)-3-ethynyl-5-hydroxymethyl-tetrahydrofuran-3,4-diol] had a pEC50 in the experiment on dengue virus serotype 2 of roughly 6.40.
In the experiment on dengue virus serotype 2, `C#Cc1cn([C@@H]2O[C@H](CO)[C@@H](O)[C@]2(O)C#C)c2ncnc(N)c12` [Example 8, (2R,3R,4R,5R)-2-(4-Amino-5-ethynyl-pyrrolo[2,3-d]pyrimidin-7-yl)-3-ethynyl-5-hydroxymethyl-tetrahydro-furan-3,4-diol] had a pEC50 of roughly 6.22.
